Measurements: US9802929B2, “Benzo five-membered nitrogen heterocyclic piperidine or piperazine derivatives and preparation methods and pharmaceutical compositions thereof” (Shenyang Haiwang Biotechnology Co., Ltd., priority 2012, dated 2017)

What was measured:
[1] = test system: Ca^2+ channel; test: Antagonism of CaCl2 cumulative contraction of rabbit aorta, pA2; conditions: CaCl2 cumulative contraction after Ca-free hyperkalemia depolarization
Excerpt: Calcium-free K—H solution: Remove CaCl2 from K—H solution, add an equal number of moles of KCl, and add EDTA^−2Na^+ 0.1 mmol/L, while the other components remain unchanged.
Calcium-free hyperkalemia solution: Remove CaCl2 from hyperkalemia solution, add an equal number of moles of KCl, and add EDTA^−2Na^+ 0.1 mmol/L, while the other components remain unchanged.
(§1) Cut the chest open quickly after stunning, strip out the descending aorta, then after removing the surrounding connective tissue and adipose tissue (if performed serotonin receptor antagonist experiments, endothelial cells should be removed using a smooth stainless steel bars), cut the vessels into 3-5 mm vascular ring, then pass the steel hook through the blood vessel ring, with one end is fixed to the vent hook and the other end connected to the tension transducer, then place the specimens into bath tube containing 20 mL of nutrient solution, and record tension change by tension transducer. Maintain tube temperature at 37±0.5° C., and pass bubbles (95% O2+5% CO2) into the solution as a speed of 1-2 bubbles/minute. Place an initial load of 1.5 g on the rings, and change nutrient every 20 minutes, then balance for 2 hours and start test after baseline readings are stabilized.
After the tension is stabilized, wash the specimen three times and incubate with Ca-free K—H solution for 40 minutes; depolarize with Ca-free hyperkalemia solution for 20 minutes, and then add CaCl2 (10^−6-10^−2 mol/L) to the tube until a maximum response is achieved, and then record the curve. Then wash with K—H solution repeatedly, and replace with fresh K—H solution every 20 minutes; after balancing for 60 minutes and the baseline values are stabilized, wash the specimen again three times, and incubate with Ca-free K—H solution for 40 minutes; depolarize with Ca-free hyperkalemia solution for 20 minutes, and then add compound II-36 (3×10^−6 mol/L) to the tube, and incubate for 20 minutes; then add CaCl2 (10^−6-10^−2 mol/L) until a maximum response is achieved, and then record the curve. Mark CaCl2 contraction as ordinate using maximum response as 100% base. […] PA2 value of compound II-36 is 5.61±0.04 against CaCl2 contraction effect on rabbit aorta.
After the tension is stabilized, wash the specimen three times and incubate with Ca-free K—H solution for 40 minutes; depolarize with Ca-free hyperkalemia solution for 20 minutes, and then add CaCl2 (10^−6-10^−2 mol/L) to the tube until a maximum response is achieved, and then record the curve. […]

[2] = test system: In Vitro Vascular Smooth Muscle of Rabbits; test: Relaxant effect on in vitro rabbit vascular smooth muscle contraction induced by adrenaline (AD); conditions: for EC50: Oryctolagus cuniculus; for relaxant effect against AD contraction (in words): rabbit vascular smooth muscle, AD 10^−5 mol/L
Excerpt: Krebs-Henseleit (K—H) physiological solution: NaCl 6.92 (concentration units), KCl 0.35, MgSO4 0.29, KH2PO4 0.16, CaCl2 0.28, NaHCO3 2.1, glucose 2.0 (g/L), pH 7.2.
Preparation of compound II-1 to II-87 solutions: Weigh a certain quality compound samples and dilute to concentrations (10^−10˜10^−3 mol/L) with distilled water, standby.
as §1
After tension readings are stabilized, record a certain length of tension curve, and add spasmogens agent AD (10^−5 mol/L) to induce contraction; if a maximum contract is achieved, wash the specimens thoroughly, and change K—H solution every 20 minutes, and then balance for 60 minutes; after baseline readings are stabilized, induce contract with spasmogens agent again. When the maximum contract in the later induction is consistent with the former induction, add compound II-1 to II-34 solutions (1×10^−10 to 1×10^−3 mol/L), II-35 to II-87 solutions (1×10^−8-1×10^−3 mol/L), and record the curves. Draw a dose-response curve using maximum relaxation response as 100%, relaxation percentage as ordinate and negative logarithms of the each concentration as abscissa.

[3] = relaxation of rabbit aortic rings contracted by AD (10^−5 mol/L)

Row | Structure (SMILES) | PA2 value against CaCl2 contraction [1] | EC50 [2, 3] [nM] | relaxant effect against AD contraction (in words) [2] | −logEC50 [2, 3]
1 | FC(F)(F)c1cccc(N2CCN(CCCCn3cnc4ccccc43)CC2)c1 [Compound II-36, 1-(4-(4-(3-trifluoromethylphenyl)piperazin-1-yl)butyl)-1H-benzimidazole] | 5.61±0.04 | 1860 | most significant relaxation effects | 
2 | FC(F)(F)c1cccc(N2CCN(CCCCn3nnc4ccccc43)CC2)c1 [Compound II-65, 1-(4-(4-(3-trifluoromethylphenyl)piperazin-1-yl)butyl)-1H-benzotriazole] | 6.56±0.032 |  | most significant relaxation effects | 6.19 ± 0.03
3 | c1ccc2c(c1)nnn2CCCCN1CCN(c2nsc3ccccc23)CC1 [Compound II-68, 3-(4-(4-(1H-benzotriazol-1-yl)butyl)piperazin-1-yl)benzisothiazole] | 5.36±0.26 | 8.51 | most significant relaxation effects | 
